Our source for the thermal stability z-score values is the supplement of paper PMC12463676, “Small-molecule dissolution of stress granules by redox modulation benefits ALS models” (Nature Chemical Biology, 2025).

Compound in one test: NC(=O)CCCCC1CCSS1 [lipoamide]
The test is described as follows: thermal stability z-score vs DMSO; higher = more thermally stabilized by treatment. As to conditions: HeLa, lipoamide concentration 100 µM. As to the method: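 Cellular thermal proteome profiling in HeLa cells. Cells were treated with 100 µM lipoamide for 1 h, with or without 1 mM arsenate for a further 1 h, then heated to ten temperatures (37-66.3 °C), and soluble protein was quantified by TMT mass spectrometry relative to 0.1% DMSO controls. The thermal stability score (sum of log2 fold changes minus the abundance score) was transformed to a z-score; mean of n = 3 experiments.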

Compound in a further test: O=[As]([O-])(O)O.[K+] [potassium arsenate]
The test is described as above. As to conditions: HeLa; arsenate concentration 1 mM. As to the method:
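Cellular thermal proteome profiling in HeLa cells treated with 1 mM arsenate for 1 h (DMSO pretreatment), heated to ten temperatures (37-66.3 °C). Soluble protein was quantified by TMT mass spectrometry relative to DMSO controls; the thermal stability score was transformed to a z-score; mean of n = 3 experiments.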

The mark [1] stands for this setting: arsenate co-treatment: 1 mM arsenate 1 h.
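Also: each temperature applied for 3 min, abundance score taken as mean log2 fold change at the two lowest temperatures, z-score obtained by mean subtraction and division by SD.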

Chain of UniProt Q8N9F7 (Q8N9F7 whole entry): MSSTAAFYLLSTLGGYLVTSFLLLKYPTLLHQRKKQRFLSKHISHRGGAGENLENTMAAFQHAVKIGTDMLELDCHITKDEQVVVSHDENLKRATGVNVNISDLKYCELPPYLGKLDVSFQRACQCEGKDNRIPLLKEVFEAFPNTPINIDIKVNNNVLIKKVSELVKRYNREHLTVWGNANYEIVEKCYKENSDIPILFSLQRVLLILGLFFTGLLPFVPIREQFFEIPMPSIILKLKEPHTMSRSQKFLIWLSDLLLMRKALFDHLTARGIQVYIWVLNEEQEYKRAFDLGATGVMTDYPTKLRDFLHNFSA
Chain of UniProt O14893 (O14893 whole entry): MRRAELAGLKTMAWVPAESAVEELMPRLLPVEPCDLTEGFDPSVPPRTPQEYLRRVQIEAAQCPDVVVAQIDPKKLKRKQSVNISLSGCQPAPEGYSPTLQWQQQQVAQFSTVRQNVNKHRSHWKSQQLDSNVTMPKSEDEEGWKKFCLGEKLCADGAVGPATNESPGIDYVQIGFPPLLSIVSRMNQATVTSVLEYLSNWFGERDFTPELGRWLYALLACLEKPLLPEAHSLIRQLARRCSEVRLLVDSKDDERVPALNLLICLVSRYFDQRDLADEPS
Chain of UniProt P57678 (P57678 whole entry): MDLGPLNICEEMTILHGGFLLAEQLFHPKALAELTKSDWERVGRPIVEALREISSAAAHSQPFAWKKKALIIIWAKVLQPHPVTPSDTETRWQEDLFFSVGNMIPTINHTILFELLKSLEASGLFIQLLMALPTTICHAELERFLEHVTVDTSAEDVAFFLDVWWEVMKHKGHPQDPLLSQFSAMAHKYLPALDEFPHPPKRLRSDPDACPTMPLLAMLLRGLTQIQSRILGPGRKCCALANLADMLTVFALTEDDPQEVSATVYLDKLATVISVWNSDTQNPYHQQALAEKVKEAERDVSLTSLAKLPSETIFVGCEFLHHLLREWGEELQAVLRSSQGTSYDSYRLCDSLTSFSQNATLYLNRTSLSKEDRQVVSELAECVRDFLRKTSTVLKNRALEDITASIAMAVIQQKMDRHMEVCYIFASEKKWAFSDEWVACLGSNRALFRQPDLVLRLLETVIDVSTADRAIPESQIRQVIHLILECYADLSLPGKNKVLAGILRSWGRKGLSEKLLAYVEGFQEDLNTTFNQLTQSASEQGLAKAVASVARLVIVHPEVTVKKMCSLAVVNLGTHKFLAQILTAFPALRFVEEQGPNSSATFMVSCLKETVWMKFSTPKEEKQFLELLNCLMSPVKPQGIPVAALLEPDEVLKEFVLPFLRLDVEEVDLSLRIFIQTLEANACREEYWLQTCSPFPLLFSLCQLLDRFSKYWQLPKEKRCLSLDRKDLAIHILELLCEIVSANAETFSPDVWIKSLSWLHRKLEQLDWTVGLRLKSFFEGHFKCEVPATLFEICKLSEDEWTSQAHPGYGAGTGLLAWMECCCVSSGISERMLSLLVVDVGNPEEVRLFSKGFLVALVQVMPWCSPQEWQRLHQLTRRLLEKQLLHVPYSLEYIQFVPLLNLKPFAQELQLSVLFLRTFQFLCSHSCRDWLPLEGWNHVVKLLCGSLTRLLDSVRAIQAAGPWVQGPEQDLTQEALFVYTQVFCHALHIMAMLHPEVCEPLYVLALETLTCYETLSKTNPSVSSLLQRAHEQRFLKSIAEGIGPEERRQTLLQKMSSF
Chain of UniProt P48507 (P48507 whole entry): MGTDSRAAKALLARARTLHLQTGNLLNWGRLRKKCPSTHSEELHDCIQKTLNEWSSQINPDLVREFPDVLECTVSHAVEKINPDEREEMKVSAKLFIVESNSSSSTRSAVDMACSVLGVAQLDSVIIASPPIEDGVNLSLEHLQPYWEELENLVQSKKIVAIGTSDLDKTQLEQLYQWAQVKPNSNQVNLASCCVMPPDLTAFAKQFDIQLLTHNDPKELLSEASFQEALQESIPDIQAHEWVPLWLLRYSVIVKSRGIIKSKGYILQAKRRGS
Chain of UniProt Q92616 (Q92616 whole entry): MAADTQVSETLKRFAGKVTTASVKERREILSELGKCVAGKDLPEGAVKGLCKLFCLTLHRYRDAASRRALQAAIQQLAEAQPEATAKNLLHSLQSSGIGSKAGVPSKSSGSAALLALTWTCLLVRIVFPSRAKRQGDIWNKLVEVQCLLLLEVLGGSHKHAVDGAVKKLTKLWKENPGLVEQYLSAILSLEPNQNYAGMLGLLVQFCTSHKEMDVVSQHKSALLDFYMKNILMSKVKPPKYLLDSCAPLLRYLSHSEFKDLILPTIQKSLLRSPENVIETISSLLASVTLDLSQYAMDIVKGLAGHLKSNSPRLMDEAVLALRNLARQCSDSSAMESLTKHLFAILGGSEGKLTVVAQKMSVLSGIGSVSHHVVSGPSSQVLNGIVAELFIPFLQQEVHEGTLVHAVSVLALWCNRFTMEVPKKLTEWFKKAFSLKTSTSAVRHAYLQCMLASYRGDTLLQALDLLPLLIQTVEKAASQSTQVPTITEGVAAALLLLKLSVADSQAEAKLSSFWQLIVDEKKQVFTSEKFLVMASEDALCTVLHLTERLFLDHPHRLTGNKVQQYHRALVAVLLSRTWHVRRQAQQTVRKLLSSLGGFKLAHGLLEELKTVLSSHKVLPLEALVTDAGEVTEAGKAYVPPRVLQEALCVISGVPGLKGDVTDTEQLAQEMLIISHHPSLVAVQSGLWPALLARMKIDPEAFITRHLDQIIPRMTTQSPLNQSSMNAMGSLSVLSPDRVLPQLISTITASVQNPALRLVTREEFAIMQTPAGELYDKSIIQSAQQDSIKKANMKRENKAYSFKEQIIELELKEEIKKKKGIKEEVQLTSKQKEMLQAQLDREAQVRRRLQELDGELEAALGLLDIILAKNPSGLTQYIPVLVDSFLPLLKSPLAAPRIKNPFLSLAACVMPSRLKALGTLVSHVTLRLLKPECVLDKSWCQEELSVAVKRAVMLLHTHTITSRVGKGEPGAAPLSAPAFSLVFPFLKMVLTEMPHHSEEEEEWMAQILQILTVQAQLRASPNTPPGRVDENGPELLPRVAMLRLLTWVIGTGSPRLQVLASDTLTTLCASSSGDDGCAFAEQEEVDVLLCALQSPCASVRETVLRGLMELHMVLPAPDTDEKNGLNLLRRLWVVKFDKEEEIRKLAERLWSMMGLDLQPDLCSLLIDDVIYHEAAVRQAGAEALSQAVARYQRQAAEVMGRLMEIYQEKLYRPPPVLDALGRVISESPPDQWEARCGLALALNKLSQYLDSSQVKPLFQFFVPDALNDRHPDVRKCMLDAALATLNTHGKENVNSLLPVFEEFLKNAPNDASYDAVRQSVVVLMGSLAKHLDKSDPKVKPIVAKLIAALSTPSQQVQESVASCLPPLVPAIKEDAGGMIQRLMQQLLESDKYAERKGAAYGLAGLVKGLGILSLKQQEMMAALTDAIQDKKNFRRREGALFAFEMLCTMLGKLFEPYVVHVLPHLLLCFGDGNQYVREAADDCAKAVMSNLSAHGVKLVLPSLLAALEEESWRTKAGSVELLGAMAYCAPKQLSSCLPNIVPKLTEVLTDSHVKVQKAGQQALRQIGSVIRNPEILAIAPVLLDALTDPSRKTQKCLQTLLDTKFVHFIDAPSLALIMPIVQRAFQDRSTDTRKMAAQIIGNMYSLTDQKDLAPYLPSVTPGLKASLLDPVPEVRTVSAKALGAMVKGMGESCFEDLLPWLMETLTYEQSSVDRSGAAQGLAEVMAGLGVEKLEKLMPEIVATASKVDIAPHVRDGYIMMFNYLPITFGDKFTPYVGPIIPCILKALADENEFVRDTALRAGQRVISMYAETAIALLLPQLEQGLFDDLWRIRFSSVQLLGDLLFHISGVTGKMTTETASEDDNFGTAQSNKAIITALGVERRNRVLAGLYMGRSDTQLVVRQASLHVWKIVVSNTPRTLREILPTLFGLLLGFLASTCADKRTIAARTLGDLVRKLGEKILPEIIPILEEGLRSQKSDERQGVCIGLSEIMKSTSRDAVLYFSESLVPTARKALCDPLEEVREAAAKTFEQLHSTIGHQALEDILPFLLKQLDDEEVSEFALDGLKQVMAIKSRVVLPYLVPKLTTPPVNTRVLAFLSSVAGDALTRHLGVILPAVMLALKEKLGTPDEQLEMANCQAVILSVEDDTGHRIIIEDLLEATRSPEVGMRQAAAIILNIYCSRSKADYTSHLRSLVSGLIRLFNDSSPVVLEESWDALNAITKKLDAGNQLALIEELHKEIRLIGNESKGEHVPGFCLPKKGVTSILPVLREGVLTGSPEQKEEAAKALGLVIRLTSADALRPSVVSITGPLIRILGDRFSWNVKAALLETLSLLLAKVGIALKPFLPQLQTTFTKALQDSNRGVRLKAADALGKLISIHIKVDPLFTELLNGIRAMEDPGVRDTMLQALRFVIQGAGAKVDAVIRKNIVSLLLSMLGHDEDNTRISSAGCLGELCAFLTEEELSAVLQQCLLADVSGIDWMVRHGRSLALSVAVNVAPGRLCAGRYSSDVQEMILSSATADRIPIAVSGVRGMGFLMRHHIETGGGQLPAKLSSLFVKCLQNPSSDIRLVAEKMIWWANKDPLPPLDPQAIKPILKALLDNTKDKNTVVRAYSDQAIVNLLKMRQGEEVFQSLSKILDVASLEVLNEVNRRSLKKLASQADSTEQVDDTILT
Chain of UniProt P31150 (P31150 whole entry): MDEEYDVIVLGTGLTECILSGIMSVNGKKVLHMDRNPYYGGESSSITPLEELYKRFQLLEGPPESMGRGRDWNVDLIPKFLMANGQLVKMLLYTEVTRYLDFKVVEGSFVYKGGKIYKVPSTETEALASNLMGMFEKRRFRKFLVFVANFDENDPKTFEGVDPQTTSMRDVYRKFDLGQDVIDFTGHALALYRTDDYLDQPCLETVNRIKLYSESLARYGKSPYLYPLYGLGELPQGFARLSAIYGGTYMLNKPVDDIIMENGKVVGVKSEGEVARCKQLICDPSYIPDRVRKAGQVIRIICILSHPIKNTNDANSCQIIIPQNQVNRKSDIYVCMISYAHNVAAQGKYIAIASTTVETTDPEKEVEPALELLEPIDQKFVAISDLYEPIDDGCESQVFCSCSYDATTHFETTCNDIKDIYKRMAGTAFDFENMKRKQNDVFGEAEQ

GCDH (UniProt Q92947): the thermal stability z-score with lipoamide (setting [1]) is 0.711; in the test with lipoamide (arsenate co-treatment: none) it was 0.198; with potassium arsenate, -0.202.
The matching figures for GCFC2 (UniProt P16383): 0.317, 0.441 and -0.00138.
The matching figures for GCHFR (UniProt P30047): -0.485, -0.374 and 0.0269.
On to GCLC (UniProt P48506), for which the thermal stability z-score with lipoamide (setting [1]) worked out at 0.874; with lipoamide (arsenate co-treatment: none), 0.402; in the test with potassium arsenate it was 1.56.
Regarding GCLM (UniProt P48507), the thermal stability z-score with lipoamide (setting [1]) came out at 1.62; with lipoamide (arsenate co-treatment: none) it was 0.394; with potassium arsenate, 2.05.
In the case of GCN1 (UniProt Q92616), the thermal stability z-score with lipoamide (setting [1]) was -0.244; with lipoamide (arsenate co-treatment: none) it was 0.292; with potassium arsenate, 0.522.
The like results for GCNT2 (UniProt Q8N0V5) were, in that order, 0.367, -0.158 and -0.125.
The like results for GCSH (UniProt P23434) were, in that order, 0.134, -0.126 and -1.45.
The matching figures for GDA (UniProt Q9Y2T3): 0.244, 0.292 and 0.0168.
On to GDAP1 (UniProt Q8TB36), for which the thermal stability z-score was -0.141 with lipoamide (setting [1]), -0.313 with lipoamide (arsenate co-treatment: none) and -0.354 with potassium arsenate.
Take GDAP2 (UniProt Q9NXN4): the thermal stability z-score with lipoamide (setting [1]) is -0.0509; with lipoamide (arsenate co-treatment: none), -0.305; in the test with potassium arsenate, -0.255.
The like results for GDE1 (UniProt Q9NZC3) were, in that order, -0.631, -0.947 and -1.38.
In the case of GDI1 (UniProt P31150), the results for the thermal stability z-score in the test with lipoamide (setting [1]), in the test with lipoamide (arsenate co-treatment: none) and with potassium arsenate were 0.00835, -0.013 and -0.353, respectively.
The matching figures for GDI2 (UniProt P50395): 0.452, 0.275 and -0.47.
As for GDPD1 (UniProt Q8N9F7), the thermal stability z-score with lipoamide (setting [1]) was -0.226; with lipoamide (arsenate co-treatment: none), -0.624; with potassium arsenate, -1.05.
The like results for GDPD3 (UniProt Q7L5L3) were, in that order, 0.187, -0.422 and 0.114.
Take GDPGP1 (UniProt Q6ZNW5): the thermal stability z-score with lipoamide (setting [1]) was -0.332; in the test with lipoamide (arsenate co-treatment: none), -0.511; with potassium arsenate it was -0.786.
The matching figures for GEMIN2 (UniProt O14893): -0.139, -0.0485 and -0.345.
The matching figures for GEMIN4 (UniProt P57678): -0.347, -0.228 and -0.0793.
The matching figures for GEMIN5 (UniProt Q8TEQ6): -0.411, -0.402 and -0.93.
For the target GEMIN6 (UniProt Q8WXD5), the thermal stability z-score with lipoamide (setting [1]) is 0.0364; with lipoamide (arsenate co-treatment: none), -0.18; with potassium arsenate, -0.129.
For GEMIN8 (UniProt Q9NWZ8), the thermal stability z-score in the test with lipoamide (setting [1]) is 0.0342; with lipoamide (arsenate co-treatment: none), -0.0734; with potassium arsenate, -0.0475.
The like results for GET4 (UniProt Q7L5D6) were, in that order, -0.844, -0.0598 and 0.752.
